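These data come from cells grown in 96-well plates and exposed to compound for 48 hours at five concentrations. The concentration for 50% growth inhibition is given as GI50.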 The source made the active and inactive calls. Rule as the data show it: active = GI50 up to about 1.1 µM and inactive = higher. Where a SMILES comes first, the peptide text is derived from it. The star is where a group is joined. Cbz = O=C(OCc1ccccc1)*; Boc = CC(C)(C)OC(=O)*; OSu = O=C1CCC(=O)N1O*; Bn = c1ccc(C*)cc1
Tests used:
Test in all cases: inhibition of tumour cell growth, NCI panel, 48 h
[1] = test system: KM12
[2] = test system: U-251
[3] = test system: SNB-19
[4] = test system: SR
[5] = test system: MDA-MB-231
[6] = test system: LOX IMVI
[7] = test system: SK-MEL-5
[8] = test system: RPMI-8226
[9] = test system: OVCAR-8
[10] = test system: NCI-H460
[11] = test system: HOP-62
[12] = test system: HCT-116
[13] = test system: K562
[14] = test system: SW-620
[15] = test system: MOLT-4
[16] = test system: A498
[17] = test system: PC-3
[18] = test system: SF-268
[19] = test system: CCRF-CEM

COC1=CC2=NCCc3n[nH]c(c32)C1=O
GI50 [1]: 28.1 µM (inactive) | GI50 [2]: 16.7 µM (inactive) | GI50 [3]: 46 µM (inactive) | GI50 [4]: 13.4 µM (inactive) | GI50 [5]: 14.5 µM (inactive) | GI50 [6]: 2.35 µM (inactive) | GI50 [7]: 18.3 µM (inactive) | GI50 [8]: 11.5 µM (inactive) | GI50 [9]: 15.2 µM (inactive) | GI50 [10]: 27 µM (inactive) | GI50 [11]: 31.7 µM (inactive) | GI50 [12]: 13.7 µM (inactive) | GI50 [13]: 0.0545 µM (active) | GI50 [14]: 13.6 µM (inactive) | GI50 [15]: 18.6 µM (inactive) | GI50 [16]: 23.5 µM (inactive) | GI50 [17]: 19.5 µM (inactive)

CC(C)(C)OC(=O)NC(Cc1ccc(OCc2ccccc2)cc1)C(=O)NC(CCCCNC(=O)OCc1ccccc1)C(=O)ON1C(=O)CCC1=O (centres undefined) (Boc-Tyr(Bn)-Lys(Cbz)-OSu; configuration not given here)
GI50 [1]: 23.9 µM (inactive) | GI50 [2]: 17 µM (inactive) | GI50 [3]: 16.7 µM (inactive) | GI50 [4]: 25.4 µM (inactive) | GI50 [5]: 22.3 µM (inactive) | GI50 [7]: 22.4 µM (inactive) | GI50 [8]: 20 µM (inactive) | GI50 [9]: 20.8 µM (inactive) | GI50 [10]: 21.7 µM (inactive) | GI50 [11]: 19.5 µM (inactive) | GI50 [12]: 19.9 µM (inactive) | GI50 [13]: 27 µM (inactive) | GI50 [14]: 20.7 µM (inactive) | GI50 [15]: 20 µM (inactive) | GI50 [16]: 48.3 µM (inactive) | GI50 [17]: 22.1 µM (inactive)

CC(NC(=O)OC(C)(C)C)C(=O)NC(Cc1ccccc1)C(=O)NCC(=O)Oc1c(Cl)c(Cl)c(Cl)c(Cl)c1Cl (centres undefined)
GI50 [1]: 25 µM (inactive) | GI50 [2]: 19.7 µM (inactive) | GI50 [3]: 29.3 µM (inactive) | GI50 [4]: 25 µM (inactive) | GI50 [5]: 16.6 µM (inactive) | GI50 [7]: 13.6 µM (inactive) | GI50 [8]: 23.2 µM (inactive) | GI50 [9]: 19.6 µM (inactive) | GI50 [10]: 25.6 µM (inactive) | GI50 [11]: 18.7 µM (inactive) | GI50 [12]: 19.6 µM (inactive) | GI50 [13]: 30.6 µM (inactive) | GI50 [14]: 20.1 µM (inactive) | GI50 [15]: 23.2 µM (inactive) | GI50 [16]: 21.2 µM (inactive) | GI50 [17]: 20.3 µM (inactive)

CC1CCCC2(CC[N+](C)(CCC[N+](C)(C)C)CC2)C1 (centres undefined)
GI50 [1]: > 100 µM (inactive) | GI50 [2]: > 100 µM (inactive) | GI50 [3]: > 100 µM (inactive) | GI50 [4]: > 100 µM (inactive) | GI50 [5]: > 100 µM (inactive) | GI50 [6]: > 100 µM (inactive) | GI50 [7]: > 100 µM (inactive) | GI50 [8]: > 100 µM (inactive) | GI50 [9]: > 100 µM (inactive) | GI50 [10]: > 100 µM (inactive) | GI50 [11]: > 100 µM (inactive) | GI50 [12]: > 100 µM (inactive) | GI50 [13]: > 100 µM (inactive) | GI50 [18]: > 100 µM (inactive) | GI50 [14]: > 100 µM (inactive) | GI50 [15]: > 100 µM (inactive) | GI50 [16]: > 100 µM (inactive) | GI50 [17]: > 100 µM (inactive)

NC(=O)NC(=O)CCC(NS(=O)(=O)c1ccccc1)C(=O)NC(N)=O (centres undefined)
GI50 [1]: > 100 µM (inactive) | GI50 [2]: > 100 µM (inactive) | GI50 [19]: > 100 µM (inactive) | GI50 [3]: > 100 µM (inactive) | GI50 [4]: > 100 µM (inactive) | GI50 [5]: > 100 µM (inactive) | GI50 [6]: > 100 µM (inactive) | GI50 [7]: > 100 µM (inactive) | GI50 [9]: > 100 µM (inactive) | GI50 [10]: > 100 µM (inactive) | GI50 [11]: > 100 µM (inactive) | GI50 [12]: > 100 µM (inactive) | GI50 [13]: > 100 µM (inactive) | GI50 [18]: > 100 µM (inactive) | GI50 [14]: > 100 µM (inactive) | GI50 [15]: > 100 µM (inactive) | GI50 [16]: > 100 µM (inactive) | GI50 [17]: > 100 µM (inactive)

C[N+](C)(C)CC1CCCc2ccccc2C1=O (centres undefined)
GI50 [1]: 9.86 µM (inactive) | GI50 [2]: 6.71 µM (inactive) | GI50 [19]: 2.32 µM (inactive) | GI50 [3]: 29 µM (inactive) | GI50 [4]: 1.64 µM (inactive) | GI50 [5]: 16.3 µM (inactive) | GI50 [7]: 6.59 µM (inactive) | GI50 [8]: 0.265 µM (active) | GI50 [9]: 8.28 µM (inactive) | GI50 [10]: 22.1 µM (inactive) | GI50 [11]: 18.8 µM (inactive) | GI50 [12]: 1.87 µM (inactive) | GI50 [13]: 2.49 µM (inactive) | GI50 [18]: 22 µM (inactive) | GI50 [14]: 2.04 µM (inactive) | GI50 [15]: 2.48 µM (inactive) | GI50 [16]: 14 µM (inactive) | GI50 [17]: 16.8 µM (inactive)

N#C/C=C(/NC(=O)Nc1ccccc1)N1CCCC1
GI50 [1]: > 54.8 µM (inactive) | GI50 [2]: > 36.8 µM (inactive) | GI50 [19]: > 100 µM (inactive) | GI50 [3]: > 25.2 µM (inactive) | GI50 [4]: > 100 µM (inactive) | GI50 [5]: > 55.8 µM (inactive) | GI50 [6]: > 66.7 µM (inactive) | GI50 [7]: 56.4 µM (inactive) | GI50 [8]: > 82 µM (inactive) | GI50 [9]: > 32.5 µM (inactive) | GI50 [10]: > 37.5 µM (inactive) | GI50 [12]: > 34.8 µM (inactive) | GI50 [13]: > 59.4 µM (inactive) | GI50 [18]: > 32.3 µM (inactive) | GI50 [14]: > 44.2 µM (inactive) | GI50 [15]: > 100 µM (inactive) | GI50 [16]: > 100 µM (inactive) | GI50 [17]: > 35.3 µM (inactive)

COC(=O)CC1C2CC3C(C2=O)C13 (centres undefined)
GI50 [1]: > 100 µM (inactive) | GI50 [2]: > 100 µM (inactive) | GI50 [19]: > 100 µM (inactive) | GI50 [3]: > 100 µM (inactive) | GI50 [4]: > 100 µM (inactive) | GI50 [5]: > 100 µM (inactive) | GI50 [6]: > 100 µM (inactive) | GI50 [7]: > 100 µM (inactive) | GI50 [9]: > 100 µM (inactive) | GI50 [10]: > 100 µM (inactive) | GI50 [11]: > 100 µM (inactive) | GI50 [12]: > 100 µM (inactive) | GI50 [13]: > 100 µM (inactive) | GI50 [18]: > 100 µM (inactive) | GI50 [14]: > 100 µM (inactive) | GI50 [15]: > 100 µM (inactive) | GI50 [16]: > 100 µM (inactive) | GI50 [17]: > 100 µM (inactive)
